# Source: publication PMC5344255, “Design, Synthesis and Biochemical Evaluation of Novel Selective Estrogen Receptor Ligand Conjugates Incorporating an Endoxifen-Combretastatin Hybrid Scaffold” (Biomedicines, 2016)
# System: MDA-MB-231 human breast cancer cells
# Assay: MTT assay for antiproliferative effects in MDA-MB-231
# Assay type: cell-based
# Conditions: MDA-MB-231, MTT assay
smiles,measurement,value
"CCC(=C(c1ccc(O)cc1)c1ccc(OCCN(C)C(=O)/C(=C/c2ccc(OC)c(O)c2)c2cc(OC)c(OC)c(OC)c2)cc1)c1ccc(O)cc1 (mixture of isomers) [Compound 28, (E)-N-(2-{4-[(E/Z)-1,2-Bis-(4-hydroxyphenyl)but-1-enyl]-phenoxy}ethyl)-3-(3-hydroxy-4-methoxyphenyl)-N-methyl-2-(3,4,5-trimethoxyphenyl)acrylamide]",IC50,2.48 µM
